For this test, the target named is T1, Rat recombinant PDE10A (rPDE10A2) (Rattus norvegicus, UniProt Q9QYJ6).
T1 construct: His tag (inferred from metal chelate purification); made in house; host or cells: Sf9 insect cells (baculovirus)
T1 sequence (Q9QYJ6 1-794): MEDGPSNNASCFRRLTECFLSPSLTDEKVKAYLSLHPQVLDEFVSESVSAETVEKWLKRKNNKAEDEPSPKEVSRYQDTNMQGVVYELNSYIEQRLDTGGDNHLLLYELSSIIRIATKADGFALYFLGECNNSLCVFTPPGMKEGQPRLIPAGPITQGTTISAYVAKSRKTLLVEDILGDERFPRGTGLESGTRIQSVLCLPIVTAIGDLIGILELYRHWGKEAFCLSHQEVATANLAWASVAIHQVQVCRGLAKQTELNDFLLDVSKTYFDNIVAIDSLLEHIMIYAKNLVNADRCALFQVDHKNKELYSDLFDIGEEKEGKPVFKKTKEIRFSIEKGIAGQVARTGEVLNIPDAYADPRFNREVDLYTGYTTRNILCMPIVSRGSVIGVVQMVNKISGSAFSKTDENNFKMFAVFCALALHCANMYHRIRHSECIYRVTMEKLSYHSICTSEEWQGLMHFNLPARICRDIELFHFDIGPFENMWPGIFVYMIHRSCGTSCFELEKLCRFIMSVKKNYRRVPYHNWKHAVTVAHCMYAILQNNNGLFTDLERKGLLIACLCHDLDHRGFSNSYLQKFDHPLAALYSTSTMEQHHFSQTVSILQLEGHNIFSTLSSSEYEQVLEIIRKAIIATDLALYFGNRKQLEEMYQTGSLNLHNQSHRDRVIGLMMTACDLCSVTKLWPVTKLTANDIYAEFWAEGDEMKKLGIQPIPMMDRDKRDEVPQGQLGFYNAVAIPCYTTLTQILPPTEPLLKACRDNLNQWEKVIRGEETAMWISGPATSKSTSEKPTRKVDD
As to the kind of experiment: In vitro assay PDE10A, rat clone (SPA, 3H-cAMP hydrolysis). The class given is biochemical. Here is the method:
Rat recombinant PDE10A (rPDE10A2) was expressed in Sf9 cells using a recombinant rPDE10A baculovirus construct. Cells were harvested after 48 h of infection and the rPDE10A protein was purified by metal chelate chromatography on Ni-sepharose 6FF. Tested compounds were dissolved and diluted in 100% DMSO to a concentration 100 fold of the final concentration in the assay. Human recombinant PDE10A ([…]) was expressed in Sf9 cells using a recombinant hPDE10A baculovirus that was made and amplified in house. Cells were harvested after 72 h of infection and the hPDE10A protein was purified by metal chelate chromatography on Ni-sepharose. Compound dilutions (0.4 μl) were added in 384 well plates to 20 μl of incubation buffer (50 mM Tris pH 7.8, 8.3 mM MgCl2, 1.7 mM EGTA). 10 μl of rPDE10A or hPDE10A enzyme in incubation buffer was added and the reaction was started by addition of 10 μl substrate to a final concentration of 60 nM cAMP and 0.008 μCi ^3H-cAMP. The reaction was incubated for 60 minutes at room temperature. After incubation, the reaction was stopped with 20 μl of stop solution consisting of 17.8 mg/ml PDE SPA (scintillation proximity assay) beads. After sedimentation of the beads during 30 minutes the radioactivity was measured in a Perkin Elmer Topcount scintillation counter and results were expressed as cpm. For blanc values the enzyme was omitted from the reaction and replaced by incubation buffer. Control values were obtained by addition of a final concentration of 1% DMSO instead of compound. A best fit curve is fitted by a minimum sum of squares method to the plot of % of control value subtracted with blanc value versus compound concentration and the half maximal inhibitory concentration (IC50) value is derived from this curve.

What is called Emax is the greatest response seen or fitted, relative to the assay's reference.

The structures appear in SMILES notation.

For `C[C@@H]1CCN(C(=O)c2ccc3c(ccn3CCF)c2)C[C@H]1c1cc(C(F)F)nc2ncnn12` [Compound 89], the Emax (rat clone (r)) was 98%. In addition, the IC50 (rat clone (r), read-out: rPDE10A2 pIC50 (converted)) is 12 nM. For the same compound, where the note is “rat clone, indicated as (r)”, the “rPDE10A2 pIC50” value is reported as 7.92 (r).

These data come from patent US10947242B2, “[1,2,4]triazolo[1,5and#8208;A]pyrimidine compounds as PDE2 inhibitors” (Janssen Pharmaceutica NV, priority 2016, dated 2021).
